This note sets out measurements from patent publication US11028127B2, “Peptides capable of reactivating p53 mutants” (Yeda Research and Development Co. Ltd., priority 2013, dated 2021).

Common to all, as to assay type: cell-based
Series [1] concerns the target T1, R249S p53 (Homo sapiens, UniProt P04637, R249S).
T1 construct: expressed in transfected cells; host or cells: H1299 p53-/- cells, transient transfection
Briefly: TK-RGC-luc luciferase reporter assay in H1299 p53−/− cells. The conditions noted are these: peptides added 24 hours after transfection, read at 48 hours. As for the experimental part: FIG. 12 is a bar graph illustrating the relative luciferase activity (cLuc/gLuc) as measured in the various tested samples. Transient transfection of H1299 p53^−/− cells was performed with plasmids expressing WT p53, R175H p53, R249S p53 or empty vector as control, together with TK-RGC-luc, where luciferase expression is under control of a tandem array of multiple p53-responsive elements. 24 hours after transfection, cells were treated with the test peptides. 48 hours after transfection, a sample of the culture medium was taken for bioluminescence measurements.
The oligonucleotide (RGC-W) that has the sequence 5′-[…]-3′ (SEQ ID NO:362), and the oligonucleotide mutant RGC oligonucleotide (RGC-M) that has the sequence 5′-[…]-3′ (SEQ ID NO:363), are both derived from Kern et al. (Kern, S. E., et al., Identification of p53 as a sequence-specific DNA-binding protein. Science, 1991. 252(5013): p. 1708-11), and serve as a consensus binding sites for WT p53.
These motifs were cloned into the KPN and Eco53IK sites in pCLuc Mini-TK 2 Vector (NEB, Cat No. N0324S ). The Luciferase construct was used to assess transcriptional activation of p53 in test cells.
H1299 p53-null cells were cultured overnight and then transfected with the luciferase constructs using MaxFect Transfection Agent (Mediatech) according to the manufacturer's protocol. Prior to the transfection, cell medium was exchanged to OPTI-MEM.
The cells were treated with different peptides 24 hours after transfection. After additional 24 hours, growth medium was collected to 96 black plates: 40 μl for Cluc assay, and 20 μl for Gluc assay. Assay was performed using Turner BioSystems Modulus Microplate. Value was calculated by Cluc/gluc/NT (non-treated cells).
As additional screening strategy used to identify reactivating peptides was performed in vivo and is based on a reporter gene assay. It measures p53 transcriptional activity by quantifying the activity of a reporter gene, placed under the control of a promoter containing 17 repeats of a p53 consensus binding site (RGC). The luciferase assay is performed on living cells and therefore provides an indication on the effect of test peptides on Mut-p53 function in the context of intact cells.
For the in vivo luciferase based screening, H1299 cells were used. Transient transfection of these p53^−/− cells was performed with vectors expressing WT p53, R175H p53, R249S p53 or empty vector as control (Suad, O., et al., Structural basis of restoring sequence-specific DNA binding and transactivation to mutant p53 by suppressor mutations. J. Mol. Biol., 2009. 385(1): p. 249-65). Cells were also co-transfected with TK-RGC-luc (CAT. No. NEB, N0324S). 24 hours after transfection, cells were treated with the test peptides. […]
In general terms: Reporter assays use an easily measured gene product as a stand-in for the process of interest.

In series [2] the test system is WI-38 fibroblasts overexpressing R175H p53 (WI38-175). Briefly: Crystal violet viability assay. The note with it: 48 hours; much more prominent than in mNoxa-i control cells. As for the experimental part:
(§1) FIGS. 13A and 13B are bar graphs illustrating the effect of various tested peptides on the viability of cells expressing Mut-p53, as determine by crystal violet assay. WI-38 fibroblasts expressing endogenous WT p53 were infected with retroviruses expressing either mouse Noxa shRNA (WI38-m-Noxa-i) as a nonspecific control or the R175H p53 mutant for stable overexpression of mutant p53 (WI38-175). The cells (WI38-m-Noxa-i or WI38-175) were seeded at 3000 cells per well in 96-well plates. Tested peptides were added to the cells. Different concentrations of etoposide (cytotoxic drug, 4′-Demethyl-epipodophyllotoxin 9-[4,6-O—(R)-ethylidene-beta-D-glucopyranoside], 4′-(dihydrogen phosphate) were used as positive control for cell death and as a standard reference curve to assess the effect of tested peptides. 48 hours after treatment, cells were washed with PBS to exclude dead cells and debris, and cells that remained attached to the plate were stained with crystal-violet for 30 minutes. Crystal violet was removed and cells were washed 4 times with PBS to remove residual crystal violet. Then, the stained cells were dissolved in 10% acetic acid and plates were taken for optical density measurement at 595 nM (optimal for crystal violet). The bar graphs of FIGS. 13A and 13B show the optical density reads at 595 nm, which reflect the number of cells in the plate after treatment, normalized to the non-treated (NT) samples.
(§2) Cells were cultured in 96 wells plates with 2500-4000 cells/well in 0.1 ml and incubated overnight at 37° C. in order to adhere to the plate. Serial dilutions of different peptides (0.5 μg/ml) were added in 0.1 ml aliquots and the plates incubated for additional 48 h at 37° C. Then medium was removed and cell lysis was determined by staining the cells with crystal violet (0.5%) in methanol/water (1:4, v/v), 50 μl each well, for 10 min, followed by 3 washes with PBS. Afterwards, 10% acetic acid (50 μl) was added to each well and shaken for 10 min. Then, automatic plate reading was performed at 595 nm.
(§3) An important indication for the reactivating peptides activity is their effect in-vivo on cancer cells that express Mut-p53. In particular, reactivating peptides that can cause specifically Mut-p53-dependent death of cancer cells, with minimal toxic effects on normal cells are desired. A crystal-violet based viability assay, in which crystal-violet is employed to stain cells that adhere to the plate and therefore the amount of dye is proportional to cell number was used to determine the effect of the various test peptides on Mut-p53-dependent death.
(§4) Cells were plated in 96-well plates, at calibrated density that allows them to grow for 48 hours without reaching confluence. Peptides are added 6 hours later. Different concentrations of etoposide (cytotoxic drug) were used as positive control for cell death and as a standard reference curve to assess the effect of tested peptides. 48 hours after treatment, cells were washed with PBS to exclude dead cells and debris, and cells that remained attached to the plate were stained with crystal-violet for 30 minutes. Crystal-violet was removed and cells were washed with PBS 4 times to eliminate remains of crystal-violet. Then, the stained cells were dissolved in 10% acetic acid and plates were taken for optical density measurement at 595 nM (specific to crystal-violet).
(§5) FIGS. 13A and 13B illustrate a representative experiment of screening performed on 128 synthesized peptides. In this experiment, WI-38 fibroblasts were used. These cells express endogenous WT p53 and were further infected with a virus expressing either mouse Noxa shRNA, as a nonspecific control or the R175H p53 mutant for stable overexpression of mutant p53. Both of these sub-lines (mNoxa or R175H p53) were seeded at 3000 cells per well and treated as described above. […]

For series [3], the system named is WI-38 fibroblasts expressing mouse Noxa shRNA (WI38-m-Noxa-i). Briefly: Crystal violet viability assay. The note with it: 48 hours. The protocol: as §1, §2, §3, §4, §5

With YRRLLIGMMWRRRRRRRRRRR [pCAP-68], the “transcription from TK-RGC-luc in the presence of R249S p53” value in series [1] is recorded as “induce transcription from TK-RGC-luc”. Besides, the “reduction in cell numbers, R175H p53 expressing WI-38 cells” value in series [2] is “toxic effect on both cell sub-lines”. Further, the “effect on cell numbers, mNoxa-i control WI-38 cells” value in series [3] is on record as “toxic effect on both cell sub-lines”.
